Source: ChEMBL document CHEMBL3045592, “Studies of O,O-dimethyl α-(2,4-dichlorophenoxyacetoxy)ethylphosphonate (HW02) as a new herbicide. 1. Synthesis and herbicidal activity of HW02 and analogues as novel inhibitors of pyruvate dehydrogenase complex” (J Agric Food Chem, 2011)

Assays:
[1] = system: Brassica rapa subsp. oleifera; assay: Post-emergence herbicidal activity against Brassica rapa subsp. oleifera Si Yue Man assessed as growth inhibition at 150 ai g/ha after 20 days by green house test; type: functional
Eclipta prostrata [2] = assay: Post-emergence herbicidal activity against Eclipta prostrata assessed as growth inhibition at 18.75 ai g/ha after 20 days by green house test; type: functional
Xanthium strumarium = assay: Post-emergence herbicidal activity against Xanthium strumarium (cocklebur) assessed as growth inhibition at 37.5 ai g/ha after 20 days by green house test; type: functional
[3] = Toxicity against Zea mays Gao you 1 (maize) assessed as growth inhibition at 450 ai g/ha post-emergent application measured after 20 days by green house crop selectivity test; type: organism-based; settings: Gao you 1, zea mays, in vivo, read-out: GI
Echinochloa crus-galli [4] = assay: Post-emergence herbicidal activity against Echinochloa crus-galli (barnyard grass) assessed as growth inhibition at 150 ai g/ha after 20 days by green house test; type: functional
Portulaca oleracea [5] = assay: Post-emergence herbicidal activity against Portulaca oleracea assessed as growth inhibition at 75 ai g/ha after 20 days by green house test; type: functional
Cardamine hirsuta [6] = assay: Post-emergence herbicidal activity against Cardamine hirsuta assessed as growth inhibition at 37.5 ai g/ha after 20 days by green house test; type: functional
[7] = Toxicity against Triticum aestivum Yang Mai 1 (wheat) assessed as growth inhibition at 300 ai g/ha post-emergent application measured after 20 days by green house crop selectivity test; type: organism-based; settings: Yang Mai 1, triticum aestivum, in vivo, read-out: GI
Portulaca oleracea [8] = assay: Post-emergence herbicidal activity against Portulaca oleracea assessed as growth inhibition at 225 ai g/ha after 20 days by green house test; type: functional
Cardamine hirsuta [9] = assay: Post-emergence herbicidal activity against Cardamine hirsuta assessed as growth inhibition at 450 ai g/ha after 20 days by green house test; type: functional
Eclipta prostrata [10] = assay: Post-emergence herbicidal activity against Eclipta prostrata assessed as growth inhibition at 450 ai g/ha after 20 days by green house test; type: functional
Medicago sativa [11] = assay: Post-emergence herbicidal activity against Medicago sativa (alfalfa) assessed as growth inhibition at 225 ai g/ha after 20 days by green house test; type: functional
Portulaca oleracea [12] = assay: Post-emergence herbicidal activity against Portulaca oleracea assessed as growth inhibition at 37.5 ai g/ha after 20 days by green house test; type: functional
Echinochloa crus-galli [13] = assay: Post-emergence herbicidal activity against Echinochloa crus-galli (barnyard grass) assessed as growth inhibition at 18.75 ai g/ha after 20 days by green house test; type: functional
Oryza sativa [14] = assay: Inhibition of PDHc in Oryza sativa (rice) shoot mitochondria assessed as decrease in rate of NADH formation using sodium pyruvate as substrate at 1 microg/g preincubated for 25 min before substrate addition measured after 1 min by spectrophotometric assay
Digitaria sanguinalis [15] = assay: Post-emergence herbicidal activity against Digitaria sanguinalis (hairy crabgrass) assessed as growth inhibition at 300 ai g/ha after 20 days by green house test; type: functional
[16] = Inhibition of PDHc in Oryza sativa (rice) shoot mitochondria assessed as decrease in rate of NADH formation using sodium pyruvate as substrate preincubated for 25 min before substrate addition measured after 1 min by spectrophotometric assay
Digitaria sanguinalis [17] = assay: Post-emergence herbicidal activity against Digitaria sanguinalis (hairy crabgrass) assessed as growth inhibition at 37.5 ai g/ha after 20 days by green house test; type: functional
Portulaca oleracea [18] = assay: Post-emergence herbicidal activity against Portulaca oleracea assessed as growth inhibition at 150 ai g/ha after 20 days by green house test; type: functional
Oryza sativa [19] = assay: Inhibition of PDHc in Oryza sativa (rice) shoot mitochondria assessed as decrease in rate of NADH formation using sodium pyruvate as substrate at 1000 microg/g preincubated for 25 min before substrate addition measured after 1 min by spectrophotometric assay
[20] = system: Brassica rapa subsp. oleifera; assay: Post-emergence herbicidal activity against Brassica rapa subsp. oleifera Si Yue Man assessed as growth inhibition at 600 ai g/ha after 20 days by green house test; type: functional
Oryza sativa [21] = assay: Inhibition of PDHc in Oryza sativa (rice) shoot mitochondria assessed as decrease in rate of NADH formation using sodium pyruvate as substrate at 10 microg/g preincubated for 25 min before substrate addition measured after 1 min by spectrophotometric assay
Daucus carota = assay: Post-emergence herbicidal activity against Daucus carota (carrot) assessed as growth inhibition at 600 ai g/ha after 20 days by green house test; type: functional
Portulaca oleracea [22] = assay: Post-emergence herbicidal activity against Portulaca oleracea assessed as growth inhibition at 18.75 ai g/ha after 20 days by green house test; type: functional
Cardamine hirsuta [23] = assay: Post-emergence herbicidal activity against Cardamine hirsuta assessed as growth inhibition at 300 ai g/ha after 20 days by green house test; type: functional
Amaranthus retroflexus [24] = assay: Post-emergence herbicidal activity against Amaranthus retroflexus assessed as growth inhibition at 37.5 ai g/ha after 20 days by green house test; type: functional
Medicago sativa [25] = assay: Post-emergence herbicidal activity against Medicago sativa (alfalfa) assessed as growth inhibition at 300 ai g/ha after 20 days by green house test; type: functional
[26] = Toxicity against Triticum aestivum Yang Mai 1 (wheat) assessed as growth inhibition at 225 ai g/ha post-emergent application measured after 20 days by green house crop selectivity test; type: organism-based; settings: Yang Mai 1, triticum aestivum, in vivo, read-out: GI
[27] = Toxicity against Triticum aestivum Yang Mai 1 (wheat) assessed as growth inhibition at 450 ai g/ha post-emergent application measured after 20 days by green house crop selectivity test; type: organism-based; settings: Yang Mai 1, triticum aestivum, in vivo, read-out: GI
[28] = Toxicity against Oryza sativa (rice) assessed as growth inhibition at 225 ai g/ha post-emergent application measured after 20 days by green house crop selectivity test; type: organism-based; settings: in vivo, read-out: GI
[29] = system: Brassica rapa subsp. oleifera; assay: Post-emergence herbicidal activity against Brassica rapa subsp. oleifera Si Yue Man assessed as growth inhibition at 300 ai g/ha after 20 days by green house test; type: functional
Oryza sativa [30] = assay: Inhibition of PDHc in Oryza sativa (rice) shoot mitochondria assessed as decrease in rate of NADH formation using sodium pyruvate as substrate at 0.1 microg/g preincubated for 25 min before substrate addition measured after 1 min by spectrophotometric assay
Medicago sativa [31] = assay: Post-emergence herbicidal activity against Medicago sativa (alfalfa) assessed as growth inhibition at 150 ai g/ha after 20 days by green house test; type: functional
Echinochloa crus-galli [32] = assay: Post-emergence herbicidal activity against Echinochloa crus-galli (barnyard grass) assessed as growth inhibition at 37.5 ai g/ha after 20 days by green house test; type: functional
Digitaria sanguinalis [33] = assay: Post-emergence herbicidal activity against Digitaria sanguinalis (hairy crabgrass) assessed as growth inhibition at 18.75 ai g/ha after 20 days by green house test; type: functional
Amaranthus retroflexus [34] = assay: Post-emergence herbicidal activity against Amaranthus retroflexus assessed as growth inhibition at 75 ai g/ha after 20 days by green house test; type: functional
Medicago sativa [35] = assay: Post-emergence herbicidal activity against Medicago sativa (alfalfa) assessed as growth inhibition at 37.5 ai g/ha after 20 days by green house test; type: functional
[36] = molecular target: Pyruvate dehydrogenase complex (Vigna radiata var. radiata); assay: Inhibition of PDHc in Vigna radiata var. radiata VC2778A shoot mitochondria assessed as decrease in rate of NADH formation using sodium pyruvate as substrate preincubated for 25 min before substrate addition measured after 1 min by spectrophotometric assay; type: protein-complex assay

## COP(=O)(OC)C(C)OC(=O)COc1ccc(Cl)cc1Cl (stereo not drawn) [CLACYFOS]
[1]
  growth inhibition (GI): 97%
Eclipta prostrata [2]
  growth inhibition (GI): 56%
Xanthium strumarium
  growth inhibition (GI): 60%
[3]
  inhibition at 480 h: 0%
Echinochloa crus-galli [4]
  growth inhibition (GI): 0%
Portulaca oleracea [5]
  growth inhibition (GI): 75%
Cardamine hirsuta [6]
  growth inhibition (GI): 84%
[7]
  inhibition at 480 h: 0%
Portulaca oleracea [8]
  growth inhibition (GI): 90%
Cardamine hirsuta [9]
  growth inhibition (GI): 100%
Eclipta prostrata [10]
  growth inhibition (GI): 100%
Medicago sativa [11]
  growth inhibition (GI): 95%
Portulaca oleracea [12]
  growth inhibition (GI): 65%
Echinochloa crus-galli [13]
  growth inhibition (GI): 0%
Oryza sativa [14]
  inhibition: 8.2%
Digitaria sanguinalis [15]
  growth inhibition (GI): 32%
[16]
  IC50: 867 µM
Digitaria sanguinalis [17]
  growth inhibition (GI): 0%
Portulaca oleracea [18]
  growth inhibition (GI): 85%
Oryza sativa [19]
  inhibition: 55.1%
[20]
  growth inhibition (GI): 100%
Oryza sativa [21]
  inhibition: 16.9%
Daucus carota
  growth inhibition (GI): 100%
Portulaca oleracea [22]
  growth inhibition (GI): 50%
Cardamine hirsuta [23]
  growth inhibition (GI): 100%
Amaranthus retroflexus [24]
  growth inhibition (GI): 82.5%
Medicago sativa [25]
  growth inhibition (GI): 97%
[26]
  inhibition at 480 h: 0%
[27]
  inhibition at 480 h: 0%
[28]
  inhibition at 480 h: 0%
[29]
  growth inhibition (GI): 100%
Oryza sativa [30]
  inhibition: 3.4%
Medicago sativa [31]
  growth inhibition (GI): 90%
Echinochloa crus-galli [32]
  growth inhibition (GI): 0%
Digitaria sanguinalis [33]
  growth inhibition (GI): 0%
Amaranthus retroflexus [34]
  growth inhibition (GI): 90%
Medicago sativa [35]
  growth inhibition (GI): 72%
[36]
  IC50: 12.8 µM
